Results from PubChem BioAssay AID330 (DTP/NCI, 2004).
Values joined by “and” are separate entries in the source; they are usually repeats but may differ in a detail not shown here. Equal values may be shown once. Inconclusive results and toxic doses are left out.

Test system: P388 leukemia ip, CD2F1 mice, survival T/C
Assay: NCI In Vivo Anticancer Drug Screen. Data for tumor model P388 Leukemia (intraperitoneal) in CD2F1 (CDF1) mice
Conditions: endpoint: median survival time, higher = longer survival
In short: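 Mice carrying the transplanted tumor received test compound or vehicle. Survival was recorded in each group, and the value is the treated-group measurement divided by that of the vehicle-treated control group.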

[1] = dose: 100.0 mg/kg/injection, schedule: Q01DX009 (ip), vehicle: saline with Tween-80
[2] = dose: 50.0 mg/kg/injection, schedule: Q01DX005 (ip), vehicle: Klucel (hydroxypropylcellulose) (HPC)
[3] = dose: 100.0 mg/kg/injection, schedule: Q01DX005 (ip), vehicle: Klucel (hydroxypropylcellulose) (HPC)
[4] = dose: 200.0 mg/kg/injection, schedule: Q01DX005 (ip), vehicle: Klucel (hydroxypropylcellulose) (HPC)
[5] = dose: 200.0 mg/kg/injection, schedule: Q01DX009 (ip), vehicle: saline with Tween-80
[6] = dose: 60.0 mg/kg/injection, schedule: Q01DX005 (ip), vehicle: saline with Tween-80
[7] = dose: 120.0 mg/kg/injection, schedule: Q01DX005 (ip), vehicle: saline with Tween-80
[8] = dose: 240.0 mg/kg/injection, schedule: Q01DX005 (ip), vehicle: saline with Tween-80
[9] = dose: 50.0 mg/kg/injection, schedule: Q01DX009 (ip), vehicle: Klucel (hydroxypropylcellulose) (HPC)
[10] = dose: 200.0 mg/kg/injection, schedule: Q01DX009 (ip), vehicle: Klucel (hydroxypropylcellulose) (HPC)
[11] = dose: 25.0 mg/kg/injection, schedule: Q01DX009 (ip), vehicle: saline
[12] = dose: 50.0 mg/kg/injection, schedule: Q01DX005 (ip), vehicle: saline with Tween-80
[13] = dose: 100.0 mg/kg/injection, schedule: Q01DX005 (ip), vehicle: saline with Tween-80
[14] = dose: 200.0 mg/kg/injection, schedule: Q01DX005 (ip), vehicle: saline with Tween-80
[15] = dose: 100.0 mg/kg/injection, schedule: Q04DX003 (ip), vehicle: saline
[16] = dose: 50.0 mg/kg/injection, schedule: Q01DX009 (ip), vehicle: saline
[17] = dose: 100.0 mg/kg/injection, schedule: Q01DX009 (ip), vehicle: saline
[18] = dose: 400.0 mg/kg/injection, schedule: Q01DX009 (ip), vehicle: saline with Tween-80

Structure (SMILES): CCNCc1c(C)[nH]c2ccccc2c1=O
- T/C (dose: 3.12 mg/kg/injection, schedule: Q01DX009 (ip), vehicle: saline with Tween-80): 100 % of control
- T/C (dose: 6.25 mg/kg/injection, schedule: Q01DX009 (ip), vehicle: saline with Tween-80): 101 % of control
- T/C (dose: 12.5 mg/kg/injection, schedule: Q01DX009 (ip), vehicle: saline with Tween-80): 102 % of control
- T/C (dose: 25.0 mg/kg/injection, schedule: Q01DX009 (ip), vehicle: saline with Tween-80): 105 % of control
- T/C [1]: 91 % of control

Structure (SMILES): CCC/C=C/C=C/C(=O)OC1/C(=C/C(=O)OC)CC2CC(C(C)O)OC(=O)CC(O)CC3CC(OC(C)=O)C(C)(C)C(O)(CC4C/C(=C/C(=O)OC)CC(/C=C/C(C)(C)C1(O)O2)O4)O3 (configuration not stated)
- T/C (dose: 0.01 mg/kg/injection, schedule: Q01DX009 (ip), vehicle: saline + alcohol): 152 % of control
- T/C (dose: 0.03 mg/kg/injection, schedule: Q01DX009 (ip), vehicle: saline + alcohol): 186 % of control
- T/C (dose: 0.07 mg/kg/injection, schedule: Q01DX009 (ip), vehicle: saline + alcohol): 163 % of control and 196 % of control
- T/C (dose: 0.15 mg/kg/injection, schedule: Q01DX009 (ip), vehicle: saline + alcohol): 179 % of control
- T/C (dose: 18.75 micrograms/kg/injection, schedule: Q01DX009 (ip), vehicle: saline + alcohol): 175 % of control
- T/C (dose: 37.5 micrograms/kg/injection, schedule: Q01DX009 (ip), vehicle: saline + alcohol): 177 % of control
- T/C (dose: 75.0 micrograms/kg/injection, schedule: Q01DX009 (ip), vehicle: saline + alcohol): 177 % of control

Structure (SMILES): CC1(c2ccc(Cl)cc2)OC(=O)CC(=O)O1
- T/C [2]: 99 % of control
- T/C [3]: 100 % of control
- T/C [4]: 100 % of control

Structure (SMILES): Cn1c(=O)[nH]c(=O)c2nc(-c3ccc(Cl)c(Cl)c3)cnc21
- T/C (dose: 50.0 mg/kg/injection, schedule: Q01DX009 (ip), vehicle: saline with Tween-80): 104 % of control
- T/C [1]: 101 % of control
- T/C [5]: 99 % of control

Structure (SMILES): COc1cc(OC)cc(C2SCC(=O)N2c2nncs2)c1 (configuration not stated)
- T/C [6]: 107 % of control
- T/C [7]: 98 % of control
- T/C [8]: 93 % of control

Structure (SMILES): NC(=O)C/C(N)=N/O
- T/C (dose: 50.0 mg/kg/injection, schedule: Q01DX005 (ip), vehicle: saline): 98 % of control
- T/C (dose: 100.0 mg/kg/injection, schedule: Q01DX005 (ip), vehicle: saline): 101 % of control
- T/C (dose: 200.0 mg/kg/injection, schedule: Q01DX005 (ip), vehicle: saline): 100 % of control

Structure (SMILES): O=c1c2ccccc2oc2c(Br)c3c(c(O)c12)CCCC3
- T/C [2]: 103 % of control
- T/C [3]: 87 % of control
- T/C [4]: 96 % of control

Structure (SMILES): COC(=O)Nc1cn2cc(C(=O)c3cccs3)ccc2n1
- T/C [9]: 113 % of control
- T/C [10]: 151 % of control

Structure (SMILES): Cc1cc(=O)[nH]c(=O)n1CCCN(C)CCCn1c(C)cc(=O)[nH]c1=O
- T/C [6]: 99 % of control
- T/C [7]: 103 % of control
- T/C [8]: 102 % of control

Structure (SMILES): c1ccc2c3c(ccc2c1)OP1(=NP(N2CC2)(N2CC2)=NP(N2CC2)(N2CC2)=N1)Oc1ccc2ccccc2c1-3
- T/C (dose: 100.0 mg/kg/injection, schedule: Q04DX002 (ip), vehicle: Klucel (hydroxypropylcellulose) (HPC)): 101 % of control and 117 % of control
- T/C (dose: 200.0 mg/kg/injection, schedule: Q04DX002 (ip), vehicle: Klucel (hydroxypropylcellulose) (HPC)): 100 % of control
- T/C (dose: 400.0 mg/kg/injection, schedule: Q04DX002 (ip), vehicle: Klucel (hydroxypropylcellulose) (HPC)): 108 % of control
- T/C (dose: 800.0 mg/kg/injection, schedule: Q04DX002 (ip), vehicle: Klucel (hydroxypropylcellulose) (HPC)): 102 % of control

Structure (SMILES): COc1cc(C(=O)O)c2c(c1C)OC(=O)c1c(C)cc(O)c(C=O)c1O2
- T/C (dose: 6.25 mg/kg/injection, schedule: Q01DX009 (ip), vehicle: saline): 119 % of control
- T/C (dose: 12.5 mg/kg/injection, schedule: Q01DX009 (ip), vehicle: saline): 119 % of control
- T/C [11]: 100 % of control
- T/C (dose: 26.0 mg/kg/injection, schedule: Q04DX003 (ip), vehicle: saline): 116 % of control
- T/C (dose: 40.0 mg/kg/injection, schedule: Q04DX003 (ip), vehicle: saline): 112 % of control
- T/C (dose: 60.0 mg/kg/injection, schedule: Q04DX003 (ip), vehicle: saline): 119 % of control

Structure (SMILES): CCC(=O)c1ccc(Oc2c3ccccc3nc3ccccc23)cc1
- T/C [12]: 108 % of control
- T/C [13]: 117 % of control
- T/C [14]: 110 % of control

Structure (SMILES): COc1ccc2cc3ccncc3cc2c1OC
- T/C (dose: 12.5 mg/kg/injection, schedule: Q01DX009 (ip), vehicle: water): 96 % of control
- T/C (dose: 25.0 mg/kg/injection, schedule: Q01DX009 (ip), vehicle: water): 99 % of control
- T/C (dose: 50.0 mg/kg/injection, schedule: Q01DX009 (ip), vehicle: water): 99 % of control
- T/C (dose: 100.0 mg/kg/injection, schedule: Q01DX009 (ip), vehicle: water): 97 % of control
- T/C (dose: 200.0 mg/kg/injection, schedule: Q01DX009 (ip), vehicle: water): 105 % of control

Structure (SMILES): CCCC(N(C)C)P(=O)(O)O (configuration not stated)
- T/C [15]: 105 % of control
- T/C (dose: 200.0 mg/kg/injection, schedule: Q04DX003 (ip), vehicle: saline): 105 % of control
- T/C (dose: 400.0 mg/kg/injection, schedule: Q04DX003 (ip), vehicle: saline): 100 % of control

Structure (SMILES): CCCC1(c2ccccc2)CC(=O)NC1=O (configuration not stated)
- T/C (dose: 60.0 mg/kg/injection, schedule: Q01DX005 (ip), vehicle: saline): 98 % of control
- T/C (dose: 120.0 mg/kg/injection, schedule: Q01DX005 (ip), vehicle: saline): 98 % of control
- T/C (dose: 240.0 mg/kg/injection, schedule: Q01DX005 (ip), vehicle: saline): 102 % of control

Structure (SMILES): Cc1cccn2ccnc12
- T/C [11]: 100 % of control and 93 % of control
- T/C [16]: 100 % of control and 96 % of control
- T/C [17]: 120 % of control and 94 % of control

Structure (SMILES): OC1(O)/C=C\CCCCC/C=C\1
- T/C (dose: 25.0 mg/kg/injection, schedule: Q01DX005 (ip), vehicle: saline with Tween-80): 100 % of control
- T/C [12]: 101 % of control
- T/C [13]: 99 % of control and 102 % of control
- T/C [14]: 105 % of control

Structure (SMILES): Nc1nc(SCc2ccccc2)sc1C(=O)N(Cc1ccccc1)Cc1ccccc1
- T/C [9]: 98 % of control
- T/C (dose: 100.0 mg/kg/injection, schedule: Q01DX009 (ip), vehicle: Klucel (hydroxypropylcellulose) (HPC)): 100 % of control
- T/C [10]: 100 % of control

Structure (SMILES): Cc1cc(=O)[nH]c(N/N=C/c2ccccc2O)n1
- T/C [1]: 90 % of control
- T/C (dose: 100.0 mg/kg/injection, schedule: Q04DX003 (ip), vehicle: saline with Tween-80): 90 % of control
- T/C [5]: 90 % of control
- T/C (dose: 200.0 mg/kg/injection, schedule: Q04DX003 (ip), vehicle: saline with Tween-80): 90 % of control
- T/C [18]: 90 % of control
- T/C (dose: 400.0 mg/kg/injection, schedule: Q04DX003 (ip), vehicle: saline with Tween-80): 100 % of control

Structure (SMILES): CCc1nc2c(cnn2C)c(=O)n1-c1ccccc1
- T/C [2]: 101 % of control
- T/C [3]: 100 % of control
- T/C [4]: 96 % of control

Structure (SMILES): CC1C2(c3ccccc3)C(C(=O)c3ccccc3)NC(c3ccccc3)C12c1ccccc1 (configuration not stated)
- T/C [12]: 87 % of control
- T/C [13]: 87 % of control

Structure (SMILES): CCCCCC(=O)OC(C)Cl (configuration not stated)
- T/C [16]: 99 % of control
- T/C [17]: 97 % of control
- T/C (dose: 200.0 mg/kg/injection, schedule: Q01DX009 (ip), vehicle: saline): 106 % of control

Structure (SMILES): CCOC(=O)CCCCCNC(=O)N1c2c(nc(N)[nH]c2=O)NCC1CNc1ccc(C(=O)NC(CCC(=O)O)C(=O)O)cc1 (configuration not stated)
- T/C (dose: 100.0 mg/kg/injection, schedule: Q01DX009 (ip), vehicle: sodium bicarbonate): 97 % of control
- T/C (dose: 200.0 mg/kg/injection, schedule: Q01DX009 (ip), vehicle: sodium bicarbonate): 91 % of control
- T/C (dose: 400.0 mg/kg/injection, schedule: Q01DX009 (ip), vehicle: sodium bicarbonate): 97 % of control

Structure (SMILES): CC1C=CC(C)c2c(-c3ccccc3)oc(-c3ccccc3)c21 (configuration not stated)
- T/C [1]: 95 % of control
- T/C [5]: 104 % of control
- T/C [18]: 108 % of control

Structure (SMILES): COc1ccc(N=c2nc3n4c(c(Br)cc(Br)c4n2)NC(C(Br)(Br)Br)=N3)cc1
- T/C [6]: 90 % of control
- T/C [7]: 92 % of control
- T/C [8]: 100 % of control

Structure (SMILES): O.O.O=S(=O)(O)C(F)(F)F.[NH2-].[NH2-].[NH2-].[NH2-].[Ru+3]
- T/C (dose: 12.5 mg/kg/injection, schedule: Q04DX003 (ip), vehicle: saline): 115 % of control
- T/C (dose: 25.0 mg/kg/injection, schedule: Q04DX003 (ip), vehicle: saline): 124 % of control
- T/C [15]: 157 % of control
